Measurements: patent US7291629B2, “Neurotrophin antagonist compositions” (Painceptor Pharma Corporation, priority 1996, dated 2007)
Like-named read-outs stand apart in the source and are kept apart here.

What was measured:
[1] = tested on: chick embryo dorsal root ganglia (DRG) neurons; assay: Inhibition of neurite outgrowth (NGF-stimulated DRG neurons); assay type: cell-based; settings: 0.25 ng/mL NGF, NGF Control 1.000
Experimental: Eight-day chick embryo dorsal root ganglia (DRG) were freed of meninges and removed aseptically. The DRG were kept at 4° C. at all times. Ganglia from six embryos (40-50 per embryo) were washed in Ca^2+-and Mg^2+-free Gey's balanced salt solution (Gibco) and exposed to 0.01% trypsin (Worthington) in the same solution for 10 min at 37° C. A half-volume of phosphate-buffered Gey's balanced salt solution was added for a further 5 min at 37° C. and the reaction was then terminated with one-third volume of Ham's F12 medium (Gibco) containing 5% fetal calf serum (FCS, Gibco). The ganglia were then triturated using a 5 mL narrow-tip pipette to a single cell suspension. Following filtration through […] nylon mesh (Small Parts Inc., Miami, Fla.) in a Millipore chamber to remove clumps, the cell suspension was washed through a 500-ml FCS undercut (700×g for 5 min at 4° C.) and resuspended in 4 mL of Ham's F12 medium plus 5% FCS. The cell suspension was then preplated on a 100-mm Flacon culture dish and incubated for 45-60 min at 37° C. in a 5% CO2 humidified atmosphere. Cells enriched in neurons were decanted for the bioassay, since non-neuronal cells of DRG preferentially stick to the culture substrate.
The inside wells of 96-well Falcon microculture plates were coated with polylysine (0.1 mg/mL) (Sigma) for 4 h at 37° C. (the outside wells were filled with distilled water to provide humidity) and, following a rinse with tissue culture media, […] of neuron-rich cell suspension was added to each well at 10^5 cells/mL. Ninety (90) […] of NGF solution (prepared in tissue culture media) was then added to each well to a final concentration of 0.25 ng/mL NGF per well. […]
The bioassays were read using a Leitz Diavert microscope with phase optics. […] At least 100 neurons per well were counted, and the assay was scored as the ratio of cells bearing neurites greater than one cell diameter to total viable (phase bright) cells.

nerve-ligated rats = assay: Nerve-ligated injury model of neuropathic pain, i.c.v. administration (tactile allodynia, thermal hyperalgesia, acute nociception); assay type: in vivo, rat; settings: given i.c.v.
[2] = tested on: L5/L6 Nerve Ligated and Sham-Operated Rats; settings: for A50(95% C.L.) Tail Flick- Ligated: L5/L6 nerve ligated rats; for A50(95% C.L.) Tail Flick- Sham: sham-operated rats
[3] = tested on: L5/L6 Nerve Ligated and Sham-Operated Rats; settings: for A50(95% C.L.) Hot Plate- Ligated: L5/L6 nerve ligated rats; for A50(95% C.L.) Hot Plate- Sham: sham-operated rats
L5/L6 Nerve Ligated rats = assay: Tactile allodynia, nerve ligation injury model (von Frey paw withdrawal threshold)

In the case of `O=C1c2cccc3cc([N+](=O)[O-])cc(c23)C(=O)N1CCO` [Compound A], the “Ratio (cells bearing neurites greater than one cell diameter to total viable cells)” value (from here on “Ratio”) ([1]; 5 μM compound) is reported as 1.1, the “Ratio” value ([1]; 50 μM compound) is reported as 0.16 and the “Ratio” value ([1]; 100 μM compound) is reported as 0.016. The “Activity in nerve-ligated injury model of neuropathic pain” value (nerve-ligated rats) was “not active”, the “A50(95% C.L.) Tail Flick- Ligated” value ([2]; i.p.) was 27.8 mg/kg and the “A50(95% C.L.) Tail Flick- Sham” value ([2]; i.p.) was 25.7 mg/kg. The “A50(95% C.L.) Tail Flick- Ligated” value ([2]; i.th) was 78 µg, the “A50(95% C.L.) Tail Flick- Sham” value ([2]; i.th) was 34 µg and the “A50(95% C.L.) Hot Plate- Ligated” value ([3]; i.p.) was 18.6 mg/kg. For the same compound, the “A50(95% C.L.) Hot Plate- Sham” value ([3]; i.p.) was 34.9 mg/kg, the “A50(95% C.L.) Hot Plate- Ligated” value ([3]; i.th) was 14.8 µg and the “A50(95% C.L.) Hot Plate- Sham” value ([3]; i.th) was 48.1 µg. The “A50(95% C.L.) Allodynia- Ligated” value (L5/L6 Nerve Ligated rats; i.p.) was 38 mg/kg and the “A50(95% C.L.) Allodynia- Ligated” value (L5/L6 Nerve Ligated rats; i.th) was 34.6 µg.
